Assay results reported in paper PMC7617104 (Biochemical Journal, 2024).
“And” between values parts separate entries of the source, which are not always exact repeats. Equal values may be shown once. Read-outs that look alike come from different tables or passages of the source. One block for each compound: values may come before it.

What was measured:
PI3Kα^WT [1] = molecular target: T1, PI3Kα^WT (Homo sapiens, UniProt P42336); assay: BLI membrane binding assay (immobilised liposomes); conditions: for effect on P2pY-activated PI3Kα^WT membrane interaction (BLI wavelength shift): 1 µM PI3Kα^WT, 300 s, GSK2126458 4 µM, PIK-75 20 µM, 6 4 µM, 7 10 µM, GDC0032 10 µM, AS252424 10 µM, AMP-PNP 2 mM with 5 mM Mg2+; for Bmax (binding capacity) of PI3Kα^WT membrane interaction in presence of inhibitor: pY activated, inhibitor:protein 4:1, Mean ± SEM
T1 construct: using full length PI3Kα^WT and PI3Kα^H1047R up to 1 μM; made in house; host or cells: Sf9 insect cells (baculovirus)
Description: BLI is a label-free dip-and-read method that uses wavelength changes in reflected incidental white light to report on changes in thickness of the lipid vesicles immobilised on a biosensor from protein binding.
(§1) BLI experiments were carried out with a BLItz® System (ForteBIO) using aminopropylsilane (APS) biosensors. The APS biosensors (ForteBIO #18-5045) were hydrated for 15–20 min in either Tris or HEPES liposome buffer. The program option used was Advanced Kinetics. Liposome membrane preparation was performed using a 0.5 mg/ml liposome solution of PIP2: PS: PE: PC: C: S (Avanti polar lipids) in the mass percentages of 5: 20: 45: 15: 10: 5. Liposomes without PIP2 were prepared as PS: PE: PC: C: S in the percentage of […]. Liposomes without PS were prepared as PIP2: PE: PC: C: S in the percentage of 5: 65: 15: 10: 5. […] P2pY and inhibitor, or DMSO only were also added to achieve a final protein concentration of 200 μg/ml, a pY concentration of 10 μM, and total DMSO content of 3%. The mixture was incubated at room temperature for 10 min prior to the protein association experiments. The membrane coated biosensors were first dipped in Buffer D containing 3% DMSO for 30 s to set an initial baseline, and transferred to the protein in the presence or absence of inhibitor. Protein binding was followed for 300 s, and then the biosensors were dipped in Buffer D with 3% DMSO again for 300 s for protein dissociation. […] PI3Kα^M1043I used 0.125, 0.25, 0.5, 1 and 1.57 µM. The results of liposome loading and protein association were then analysed and graphed using GraphPad Prism 6.
Target sequence in this assay (P42336 whole entry): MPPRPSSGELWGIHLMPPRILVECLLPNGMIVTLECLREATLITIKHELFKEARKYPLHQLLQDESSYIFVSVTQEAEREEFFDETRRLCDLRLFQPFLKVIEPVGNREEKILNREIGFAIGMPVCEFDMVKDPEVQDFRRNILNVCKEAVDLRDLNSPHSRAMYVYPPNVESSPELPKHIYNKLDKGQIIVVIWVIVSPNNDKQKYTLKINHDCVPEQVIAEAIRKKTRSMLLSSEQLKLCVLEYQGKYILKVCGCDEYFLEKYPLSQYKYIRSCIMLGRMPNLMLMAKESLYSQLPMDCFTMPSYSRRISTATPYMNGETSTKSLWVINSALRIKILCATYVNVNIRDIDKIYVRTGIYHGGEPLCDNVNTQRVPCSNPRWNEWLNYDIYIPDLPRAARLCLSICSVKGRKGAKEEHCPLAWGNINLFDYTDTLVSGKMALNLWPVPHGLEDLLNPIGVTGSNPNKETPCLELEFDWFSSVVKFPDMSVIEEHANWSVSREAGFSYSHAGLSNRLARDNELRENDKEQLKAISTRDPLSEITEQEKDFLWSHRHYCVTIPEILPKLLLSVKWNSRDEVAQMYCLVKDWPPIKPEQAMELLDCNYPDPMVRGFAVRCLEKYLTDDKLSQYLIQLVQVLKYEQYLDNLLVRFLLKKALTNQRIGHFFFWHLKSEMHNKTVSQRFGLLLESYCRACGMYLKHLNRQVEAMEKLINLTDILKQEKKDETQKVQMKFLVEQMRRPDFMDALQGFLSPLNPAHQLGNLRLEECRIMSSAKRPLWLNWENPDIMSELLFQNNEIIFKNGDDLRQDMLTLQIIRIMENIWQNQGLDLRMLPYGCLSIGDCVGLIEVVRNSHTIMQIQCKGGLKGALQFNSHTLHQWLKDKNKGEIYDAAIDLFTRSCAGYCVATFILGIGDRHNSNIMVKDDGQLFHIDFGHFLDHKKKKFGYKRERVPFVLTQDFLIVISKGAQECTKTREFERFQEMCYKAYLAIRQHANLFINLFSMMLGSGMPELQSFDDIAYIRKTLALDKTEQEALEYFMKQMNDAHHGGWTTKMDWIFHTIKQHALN
Target sequence in this assay (P27986 2-724 partner): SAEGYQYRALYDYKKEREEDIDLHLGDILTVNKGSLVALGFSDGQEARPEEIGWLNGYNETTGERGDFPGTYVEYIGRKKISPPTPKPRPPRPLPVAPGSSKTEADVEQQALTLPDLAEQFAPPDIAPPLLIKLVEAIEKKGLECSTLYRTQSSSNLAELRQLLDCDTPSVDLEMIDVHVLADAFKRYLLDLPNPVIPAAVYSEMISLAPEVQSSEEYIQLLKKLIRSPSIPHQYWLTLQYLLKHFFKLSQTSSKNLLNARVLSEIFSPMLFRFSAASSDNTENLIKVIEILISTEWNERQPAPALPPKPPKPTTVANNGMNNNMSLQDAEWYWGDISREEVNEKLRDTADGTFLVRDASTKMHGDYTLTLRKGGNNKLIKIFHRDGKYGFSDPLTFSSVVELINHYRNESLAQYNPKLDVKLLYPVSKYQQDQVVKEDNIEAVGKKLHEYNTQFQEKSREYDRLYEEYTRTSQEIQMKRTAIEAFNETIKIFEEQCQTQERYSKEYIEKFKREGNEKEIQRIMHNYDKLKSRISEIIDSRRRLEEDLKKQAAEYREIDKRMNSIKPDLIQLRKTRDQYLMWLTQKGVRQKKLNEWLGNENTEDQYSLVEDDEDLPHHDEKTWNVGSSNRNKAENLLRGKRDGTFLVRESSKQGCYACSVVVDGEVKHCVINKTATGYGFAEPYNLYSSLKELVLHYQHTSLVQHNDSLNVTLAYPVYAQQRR

PI3Kβ^WT (p110β/p85α) = molecular target: T2, PI3Kβ^WT (p110β/p85α) (Homo sapiens, UniProt P42338); assay: PI3K HTRF lipid kinase IC50 determination; type: biochemical
T2 construct: made in house; host or cells: Sf9 insect cells (baculovirus)
T2 sequence (P42338 whole entry, species assumed): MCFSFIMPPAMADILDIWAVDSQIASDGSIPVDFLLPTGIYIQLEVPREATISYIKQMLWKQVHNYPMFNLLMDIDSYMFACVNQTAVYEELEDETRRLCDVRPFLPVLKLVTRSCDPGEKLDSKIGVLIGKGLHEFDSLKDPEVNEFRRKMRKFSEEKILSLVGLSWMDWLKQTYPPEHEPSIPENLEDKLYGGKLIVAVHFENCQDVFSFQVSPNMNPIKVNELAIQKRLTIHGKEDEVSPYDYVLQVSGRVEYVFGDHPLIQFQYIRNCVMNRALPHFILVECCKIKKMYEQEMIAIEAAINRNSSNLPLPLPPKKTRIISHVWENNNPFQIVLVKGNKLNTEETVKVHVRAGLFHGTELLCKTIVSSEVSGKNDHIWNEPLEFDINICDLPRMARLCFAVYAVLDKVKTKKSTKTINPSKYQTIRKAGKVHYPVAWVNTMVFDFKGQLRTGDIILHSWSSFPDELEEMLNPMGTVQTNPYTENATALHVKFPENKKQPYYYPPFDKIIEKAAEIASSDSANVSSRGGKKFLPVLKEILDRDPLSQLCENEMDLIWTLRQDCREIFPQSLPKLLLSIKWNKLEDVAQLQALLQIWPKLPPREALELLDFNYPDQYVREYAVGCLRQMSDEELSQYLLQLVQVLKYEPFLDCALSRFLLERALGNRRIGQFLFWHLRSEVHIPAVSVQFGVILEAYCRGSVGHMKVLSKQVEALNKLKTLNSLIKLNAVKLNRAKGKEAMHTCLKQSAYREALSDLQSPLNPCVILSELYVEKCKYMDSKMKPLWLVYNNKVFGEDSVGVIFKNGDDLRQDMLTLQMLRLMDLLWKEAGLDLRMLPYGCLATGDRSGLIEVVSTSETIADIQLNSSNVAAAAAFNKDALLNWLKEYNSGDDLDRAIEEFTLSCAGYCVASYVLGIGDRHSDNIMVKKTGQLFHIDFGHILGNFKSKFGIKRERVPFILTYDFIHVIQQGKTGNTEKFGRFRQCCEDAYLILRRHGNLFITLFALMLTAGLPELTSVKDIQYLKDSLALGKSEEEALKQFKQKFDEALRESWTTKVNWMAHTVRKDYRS
T2 sequence (P27986 whole entry partner, species assumed): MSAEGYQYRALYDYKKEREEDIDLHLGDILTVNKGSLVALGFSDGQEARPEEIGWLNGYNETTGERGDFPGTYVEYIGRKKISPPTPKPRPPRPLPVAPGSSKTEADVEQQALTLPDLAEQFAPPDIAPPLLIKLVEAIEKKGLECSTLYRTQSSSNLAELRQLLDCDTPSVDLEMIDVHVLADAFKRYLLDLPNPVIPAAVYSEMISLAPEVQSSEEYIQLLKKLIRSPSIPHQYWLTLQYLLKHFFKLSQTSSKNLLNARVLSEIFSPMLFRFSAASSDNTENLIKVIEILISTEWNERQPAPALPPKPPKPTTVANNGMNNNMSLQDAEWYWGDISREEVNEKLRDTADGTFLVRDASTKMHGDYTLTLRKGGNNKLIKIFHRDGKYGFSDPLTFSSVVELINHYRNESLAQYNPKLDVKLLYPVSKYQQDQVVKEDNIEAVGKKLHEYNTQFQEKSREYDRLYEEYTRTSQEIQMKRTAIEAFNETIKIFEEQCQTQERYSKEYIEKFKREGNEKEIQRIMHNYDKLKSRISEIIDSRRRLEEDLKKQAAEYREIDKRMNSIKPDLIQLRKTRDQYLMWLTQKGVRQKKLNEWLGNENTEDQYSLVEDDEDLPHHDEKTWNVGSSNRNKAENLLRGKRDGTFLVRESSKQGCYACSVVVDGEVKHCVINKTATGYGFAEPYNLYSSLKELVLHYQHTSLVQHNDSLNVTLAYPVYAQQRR
Description: (§2) IC50 values were determined using the PI3K homogenous time-resolved fluorescence assay (Merck Millipore, #33-016) following the manufacturer's instructions as previously described. […] Data was graphed and analysed with Graphpad Prism 6, nonlinear regression with log(inhibitor) vs. response and constraints set at 0% and 100%.
(§3) (1 picture or pasted object on this page, not shown here)
(§4) Enzymes were used at PI3KαWT 40 ng/ml, PI3KβWT as either 400 ng/ml or 300 ng/ml,
(§5) and PI3K δWT was 65 ng/ml. Plates were read on a PHERAStar HTS microplate reader

p110γ [2] = molecular target: T3, p110γ (Homo sapiens, UniProt P48736); assay: PI3K HTRF lipid kinase IC50 determination; type: biochemical; conditions: Table S1, this study; a = N=2 individual data shown, b = N=1; read-out: IC50 p110γ WT
T3 construct: made in house; host or cells: Sf9 insect cells (baculovirus)
T3 sequence (P48736 whole entry, species assumed): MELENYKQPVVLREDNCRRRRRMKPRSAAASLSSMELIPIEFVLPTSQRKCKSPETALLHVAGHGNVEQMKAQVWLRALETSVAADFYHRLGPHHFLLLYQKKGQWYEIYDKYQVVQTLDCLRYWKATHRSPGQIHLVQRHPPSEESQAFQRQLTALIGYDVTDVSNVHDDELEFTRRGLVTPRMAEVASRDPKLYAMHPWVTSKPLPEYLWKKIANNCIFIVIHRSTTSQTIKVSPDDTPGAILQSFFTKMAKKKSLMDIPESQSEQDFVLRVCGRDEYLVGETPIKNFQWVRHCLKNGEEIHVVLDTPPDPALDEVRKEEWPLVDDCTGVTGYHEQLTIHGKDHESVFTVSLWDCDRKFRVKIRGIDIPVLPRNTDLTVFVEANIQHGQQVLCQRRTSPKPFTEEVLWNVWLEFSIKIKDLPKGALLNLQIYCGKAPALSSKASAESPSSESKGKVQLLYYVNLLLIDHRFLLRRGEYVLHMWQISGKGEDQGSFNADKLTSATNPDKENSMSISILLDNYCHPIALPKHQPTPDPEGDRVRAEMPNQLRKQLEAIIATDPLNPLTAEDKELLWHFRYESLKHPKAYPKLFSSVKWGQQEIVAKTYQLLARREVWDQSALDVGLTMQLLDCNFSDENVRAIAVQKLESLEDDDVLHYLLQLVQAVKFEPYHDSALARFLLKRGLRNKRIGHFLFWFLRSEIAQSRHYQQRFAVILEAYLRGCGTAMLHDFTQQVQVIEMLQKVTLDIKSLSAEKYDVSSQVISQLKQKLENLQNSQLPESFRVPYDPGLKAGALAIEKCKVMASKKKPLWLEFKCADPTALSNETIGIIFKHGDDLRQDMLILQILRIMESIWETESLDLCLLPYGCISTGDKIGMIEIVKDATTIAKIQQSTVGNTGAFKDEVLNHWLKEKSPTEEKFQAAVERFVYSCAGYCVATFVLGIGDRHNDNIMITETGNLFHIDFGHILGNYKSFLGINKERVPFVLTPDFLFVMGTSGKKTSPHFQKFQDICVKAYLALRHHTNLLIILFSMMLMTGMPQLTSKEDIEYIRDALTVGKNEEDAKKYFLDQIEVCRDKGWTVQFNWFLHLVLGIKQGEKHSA
Description: as §2, §3

PI3Kα^H1047R = molecular target: T4, PI3Kα^H1047R (Homo sapiens, UniProt P42336, H1047R); assay: BLI membrane binding assay (immobilised liposomes); conditions: pY activated, inhibitor:protein 4:1, Mean ± SEM
T4 construct: Full length PI3Kα^WT or PI3Kα^H1047R was diluted with Buffer D; made in house; host or cells: Sf9 insect cells (baculovirus)
T4 sequence (P42336 whole entry H1047R): as the sequence (P42336 whole entry) above, with H1047R counted along it
T4 sequence (P27986 whole entry partner): as the sequence (P27986 whole entry partner, species assumed) above
Description: as §1

PI3Kα^WT [3] = molecular target: T1, PI3Kα^WT; assay: FRET membrane binding assay (dansyl-PS liposomes); conditions: P1pY-activated 0.5 μM PI3Kα^WT; inhibitor 31.25 nM to 2 μM
Target sequence in this assay (P42336 whole entry): as the sequence (P42336 whole entry) above
Target sequence in this assay (P27986 whole entry partner): as the sequence (P27986 whole entry partner, species assumed) above
Description: The FRET-based assay directly monitors the interaction by measuring energy transfer from tryptophan residues in PI3Kα to dansyl-labelled phosphatidylserine (PS) lipids embedded within the synthetic membrane.
Liposomes were prepared with PIP2: phosphatidylserine (PS): phosphatidlyethanol (PE): phosphatidylcholine (PC): Cholesterol (C): Sphingomyelin (S): Dansyl PS (Avanti polar lipids) in the percentage of 5: 20: 35: 15: 10: 5: 10. Inhibitors were solubilised in 100% DMSO, and were diluted to 10% DMSO with Buffer C (30 mM HEPES pH 7.5, 50 mM NaCl), before being serially diluted to desired concentrations in 30 mM HEPES pH 7.5, 50 mM NaCl with 10% DMSO. […] Compounds were used at 5-fold the final concentration and 2 μl was added to 5 μl of enzyme in a 384-well plate, the plate was sealed and the mixture was allowed to equilibrate at room temperature for 10 min with shaking at 450 rpm. Liposomes were then added to the mixture to give a final liposome concentration of 50 μg/ml and a final reaction volume of 10 μl, and the plate was incubated at room temperature for 10 min with shaking at 450 rpm. […] The FRET signal was measured as I-I0 (intensity at 520 nm for protein and liposome solution — intensity at 520 nm for liposome only solution). […] The compound only I-I0 was then subtracted from the I-I0 of the protein-compound complex. […] Data were then graphed and analysed with GraphPad Prism 6.

PI3Kα N345K mutant = PI3Kα N345K mutant (Homo sapiens, UniProt P42336, N345K); assay: BLI membrane binding assay, concentration response; conditions: P2pY activated; protein to GSK2126458 ratio 1:4
Description: as §1, with “6. […]” for “6.”
(§6) membrane binding parameters. (A) Concentration response curves for PI3Kα oncogenic mutant proteins. Data is shown as the Mean ± SEM (number of biosensors for each data point is n≥3). A one site-specific binding model was used to fit the data. The […]
as §3

PI3Kα G1049R mutant = PI3Kα G1049R mutant (Homo sapiens, UniProt P42336, G1049R); assay: BLI membrane binding assay, concentration response; conditions: P2pY activated; protein to GSK2126458 ratio 1:4
Description: as §1, with “6. […]” for “6.”
as §6, §3

PI3Kα M1043I mutant = PI3Kα M1043I mutant (Homo sapiens, UniProt P42336, M1043I); assay: BLI membrane binding assay, concentration response; conditions: P2pY activated; protein to GSK2126458 ratio 1:4
Description: as §1, with “6. […]” for “6.”
as §6, §3

PI3Kα G118D mutant = PI3Kα G118D mutant (Homo sapiens, UniProt P42336, G118D); assay: BLI membrane binding assay, concentration response; conditions: P2pY activated; protein to GSK2126458 ratio 1:4
Description: as §1, with “6. […]” for “6.”
as §6, §3

PI3Kα C420R mutant = PI3Kα C420R mutant (Homo sapiens, UniProt P42336, C420R); assay: BLI membrane binding assay, concentration response; conditions: P2pY activated; protein to GSK2126458 ratio 1:4
Description: as §1, with “6. […]” for “6.”
as §6, §3

PI3Kα G106V mutant = PI3Kα G106V mutant (Homo sapiens, UniProt P42336, G106V); assay: BLI membrane binding assay, concentration response; conditions: P2pY activated; protein to GSK2126458 ratio 1:4
Description: as §1, with “6. […]” for “6.”
as §6, §3

PI3Kβ^WT = molecular target: T5, PI3Kβ^WT (Homo sapiens, UniProt P42338); assay: BLI membrane binding assay (immobilised liposomes); conditions: 4 µM inhibitor, 1 µM enzyme, +pY, 300 s
T5 construct: made in house; host or cells: Sf9 insect cells (baculovirus)
T5 sequence (P42338 whole entry): as the sequence (P42338 whole entry, species assumed) above
T5 sequence (P27986 whole entry partner): as the sequence (P27986 whole entry partner, species assumed) above
Description: (§7) Figure 6. […] The data are shown as Mean ± SD; PI3Kα^WT +pY n = 7; PI3Kα^WT +pY + GSK n = 5; PI3Kα^WT −pY n = 4; PI3Kα^WT −pY + GSK n = 3. (B) Effect of GSK on the BLI wavelength shift (λ) on membrane binding by PI3Kα^WT, the PI3Kα^E545K oncogenic mutant, class IA PI3Kβ^WT and class IA PI3Kδ^WT enzymes. In all experiments inhibitors were tested at 4 µM with 1 µM of the different enzymes and membrane binding was followed by BLI for 300 s.
as §1

PI3Kα^E545K = PI3Kα^E545K (Homo sapiens, UniProt P42336, E545K); assay: BLI membrane binding assay (immobilised liposomes); conditions: 4 µM inhibitor, 1 µM enzyme, +pY, 300 s
Description: as §7, §1

PI3Kδ^WT = molecular target: T6, PI3Kδ^WT (Homo sapiens, UniProt O00329); assay: BLI membrane binding assay (immobilised liposomes); conditions: 4 µM inhibitor, 1 µM enzyme, +pY, 300 s
T6 construct: made in house; host or cells: Sf9 insect cells (baculovirus)
Description: as §7, §1

p110γ [4] = molecular target: T3, p110γ; set-up: method as in earlier work; conditions: Table S1, rows marked #; ref S1; read-out: IC50 p110γ WT; cited from earlier work
PI3Kα^WT (p110α/p85α) = molecular target: T7, PI3Kα^WT (p110α/p85α) (Homo sapiens, UniProt P42336); assay: PI3K homogenous time-resolved fluorescence (HTRF) lipid kinase IC50 determination; type: biochemical; conditions: HTRF assay using PIP2 as substrate; Mean ± SD, n=2; enzyme 40 ng/ml; read-out: IC50 PI3Kα (Table S3)
T7 construct: made in house; host or cells: Sf9 insect cells (baculovirus)
T7 sequence (P42336 whole entry): as the sequence (P42336 whole entry) above
T7 sequence (P27986 whole entry partner): as the sequence (P27986 whole entry partner, species assumed) above
Description: as §2, §3, §4, §5

PI3Kδ^WT (p110δ/p85α) = molecular target: T8, PI3Kδ^WT (p110δ/p85α) (Homo sapiens, UniProt O00329); assay: PI3K HTRF lipid kinase IC50 determination; type: biochemical; conditions: HTRF assay using PIP2 as substrate; Mean ± SD, n=2; enzyme 65 ng/ml; read-out: IC50 PI3K (third column of Table S3, probably PI3Kδ)
T8 construct: made in house; host or cells: Sf9 insect cells (baculovirus)
Description: as §2, §3, §4, §5

Structure (SMILES): Nc1ncnc2c1ncn2[C@@H]1O[C@H](COP(=O)(O)OP(=O)(O)NP(=O)(O)O)[C@@H](O)[C@H]1O [AMP-PNP]
effect on P2pY-activated PI3Kα^WT membrane interaction (BLI wavelength shift) (PI3Kα^WT [1]): could promote the enzymes membrane interaction

Structure (SMILES): COc1ncc(-c2ccc3nccc(-c4ccnnc4)c3c2)cc1NS(=O)(=O)c1ccc(F)cc1F [GSK2126458]
Bmax (binding capacity) of PI3Kα^WT membrane interaction in presence of inhibitor (PI3Kα^WT [1]; liposomes 0% PIP2 + 20% PS): 1.5 ± 0.1 λ nm
Bmax (binding capacity) of PI3Kα^WT membrane interaction in presence of inhibitor (PI3Kα^WT [1]; liposomes 5% PIP2 + 20% PS): 1.9 ± 0.1 λ nm
Bmax (binding capacity) of PI3Kα^H1047R membrane interaction in presence of inhibitor (PI3Kα^H1047R; liposomes 0% PIP2 + 20% PS): 4.3 ± 0.3 λ nm
Bmax (binding capacity) of PI3Kα^H1047R membrane interaction in presence of inhibitor (PI3Kα^H1047R; liposomes 5% PIP2 + 0% PS): 4.6 ± 0.3 λ nm
Bmax (binding capacity) of PI3Kα^H1047R membrane interaction in presence of inhibitor (PI3Kα^H1047R; liposomes 5% PIP2 + 20% PS): 5.0 ± 0.2 λ nm
maximum reduction in FRET signal (PI3Kα^WT [3]): 85%
effect on N345K membrane interaction (BLI) (PI3Kα N345K mutant): sensitive to GSK2126458, with effects on the membrane interaction capacity
effect on G1049R membrane interaction capacity (BLI) (PI3Kα G1049R mutant): also sensitive to GSK2126458
effect on M1043I membrane interaction capacity (BLI) (PI3Kα M1043I mutant): also sensitive to GSK2126458
effect on G118D membrane interaction (BLI) (PI3Kα G118D mutant): changes in both capacity and affinity
effect on C420R membrane interaction (BLI) (PI3Kα C420R mutant): sensitive to GSK2126458, with effects on the membrane interaction capacity
effect on G106V membrane interaction capacity (BLI) (PI3Kα G106V mutant): largest decrease in capacity of all those tested
effect on PI3Kβ^WT membrane interaction (BLI) (PI3Kβ^WT): insensitive to GSK2126458
effect on PI3Kα^E545K membrane interaction (BLI) (PI3Kα^E545K): insensitive to regulation by GSK2126458
effect on PI3Kδ^WT membrane interaction (BLI) (PI3Kδ^WT): insensitive to GSK2126458

Structure (SMILES): Cc1ccc([N+](=O)[O-])cc1S(=O)(=O)N(C)/N=C/c1cnc2ccc(Br)cn12 [PIK-75]
IC50 (p110γ [4]): 43 ± 21 nM

Structure (SMILES): COc1ncc(-c2ccc(-c3cnc4c(c3)CN(C)C4=O)s2)cc1NS(=O)(=O)c1ccc(F)cc1F [compound 7]
IC50 (PI3Kα^WT (p110α/p85α)): 16800 ± 9100 nM
effect on P2pY-activated PI3Kα^WT membrane interaction (BLI wavelength shift) (PI3Kα^WT [1]): retained the ability to decrease
IC50 (PI3Kβ^WT (p110β/p85α); HTRF assay using PIP2 as substrate, Mean ± SD, n=2, enzyme 400 or 300 ng/ml, read-out: IC50 PI3K (second column of Table S3, probably PI3Kβ)): 242000 ± 308000 nM
IC50 (PI3Kδ^WT (p110δ/p85α)): 8600 ± 2100 nM

Second part, the compound after the results:

effect on P2pY-activated PI3Kα^WT membrane interaction (BLI wavelength shift) (PI3Kα^WT [1]): some evidence of positive modulation
Structure (SMILES): O=C1NC(=O)/C(=C/c2ccc(-c3ccc(F)cc3O)o2)S1 [AS252424]

IC50 (PI3Kβ^WT (p110β/p85α); Table S1, this study, a = N=2 individual data shown, b = N=1, read-out: IC50 PI3Kβ WT): 64 nM and 113 nM
IC50 (p110γ [2]): 4.6 nM and 3.2 nM
Structure (SMILES): Cc1nc(-c2cn3c(n2)-c2ccc(-c4cnn(C(C)(C)C(N)=O)c4)cc2OCC3)n(C(C)C)n1 [GDC0032]

maximum reduction in FRET signal (PI3Kα^WT [3]): 50%
Structure (SMILES): FC(F)c1nc2ccccc2n1-c1nc(N2CCOCC2)nc(N2CCOCC2)n1 [ZSTK474, 2-(difluoromethyl)-1-[4,6-di(4-morpholinyl)-1,3,5-triazin-2-yl]-1H-benzimidazole]

IC50 (PI3Kα^WT (p110α/p85α)): 460 ± 170 nM
Structure (SMILES): COc1ncc(-c2ccc3cccc(-c4ccnnc4)c3c2)cc1NS(=O)(=O)c1ccc(F)cc1F [compound 6]
